In this assay the target is human LPAR1 (Homo sapiens, UniProt Q92633). Nature of the assay: LPAR1 intracellular calcium mobilization assay (antagonist mode). In general terms: Calcium flux is commonly read through the fluorescence of an indicator in the cells.

As a reminder, the EC50 is the concentration needed to bring the measured effect to its halfway point.

Structures are written as SMILES.

human LPAR1, sequence (Q92633 whole entry): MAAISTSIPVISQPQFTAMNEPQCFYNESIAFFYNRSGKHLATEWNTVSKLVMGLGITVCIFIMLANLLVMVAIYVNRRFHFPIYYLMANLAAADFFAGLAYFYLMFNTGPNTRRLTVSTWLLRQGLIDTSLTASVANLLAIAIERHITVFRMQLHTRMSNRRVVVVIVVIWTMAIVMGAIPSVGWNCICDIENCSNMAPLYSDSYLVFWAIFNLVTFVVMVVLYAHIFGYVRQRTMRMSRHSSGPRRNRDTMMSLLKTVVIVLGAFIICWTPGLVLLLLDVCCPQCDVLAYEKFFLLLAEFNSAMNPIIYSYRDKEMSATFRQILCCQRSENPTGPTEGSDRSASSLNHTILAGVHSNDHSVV
Procedure: In vitro LPAR1 activity was measured in an intracellular calcium mobilization assay.
Prior to testing cell media were aspirated from the cells and replaced with 20 μL Calcium Dye Loading Buffer (DiscoverX Calcium NoWash^PLUS Assay Kit cat #90-0091) and 2.5 mM Probenecid (Sigma Aldrich cat #P8761, prepared fresh) in HBSS/20 mM Hepes for 60 min at 37° C.
For agonist dose curves, cells were removed from the incubator after dye loading and 10 μL HBSS/20 mM Hepes including 3× vehicle was added. Cells were incubated for 30 min at room temperature in the dark to equilibrate plate temperatures. An intermediate LPA dilution series was prepared in assay buffer to generate 4× stock. Calcium mobilization was monitored on a FLIPR Tetra (MDS, San Jose, Calif.) for 2 min and 10 μL 4×LPA in HBSS/20 mM Hepes was added to the cells 5 s into the assay.
An intermediate antagonist dilution series was prepared as 3× samples in assay buffer. After dye loading, cells were removed from the incubator and 10 μL 3× antagonist was added. Cells were incubated for 30 min at room temperature in the dark to equilibrate plate temperatures. The final vehicle (DMSO) concentration was 1%. Compound antagonist activities was measured on a FLIPR Tetra. Calcium mobilization was monitored for 2 min and 10 μL EC80 agonist in HBSS/20 mM Hepes was added to the cells 5 s into the assay. Compound activity was analyzed using CBIS data analysis suite (ChemInnovation Software, San Diego, Calif.).

With `Cc1ccccc1[C@@H](C)OC(=O)Nc1c(-c2ccc(NS(C)(=O)=O)c(C)n2)nnn1C` [Compound 42, (R)-1-(o-tolyl)ethyl (1-methyl-4-(6-methyl-5-(methylsulfonamido)pyridin-2-yl)-1H-1,2,3-triazol-5-yl)carbamate], the EC50 was 46.1 nM.

With `Cc1nc(-c2nnn(C)c2NC(=O)OC(c2cccnc2Cl)C(F)F)ccc1NS(C)(=O)=O` (stereo not shown) [Compound 137, 1-(2-chloropyridin-3-yl)-2,2-difluoroethyl (1-methyl-4-(6-methyl-5-(methylsulfonamido)pyridin-2-yl)-1H-1,2,3-triazol-5-yl)carbamate], the EC50 worked out at 493 nM.

In the case of `C[C@@H](OC(=O)Nc1c(-c2ccc(NS(C)(=O)=O)cn2)nnn1C)c1ccccc1F` [Compound 16, (R)-1-(2-fluorophenyl)ethyl (1-methyl-4-(5-(methylsulfonamido)pyridin-2-yl)-1H-1,2,3-triazol-5-yl)carbamate], the EC50 was determined as 5.3 nM.

Consider `COCC(OC(=O)Nc1c(-c2ccc(NS(C)(=O)=O)c(C)n2)nnn1C)c1ccccc1` (stereo not shown) [Compound 34, 2-methoxy-1-phenylethyl (1-methyl-4-(6-methyl-5-(methylsulfonamido)pyridin-2-yl)-1H-1,2,3-triazol-5-yl)carbamate], for which the EC50 amounted to 469 nM. The result for `Cc1nc(-c2nnn(C)c2NC(=O)O[C@H](C)c2ccccc2C(F)(F)F)ccc1NS(C)(=O)=O` [Compound 98, (R)-1-(2-(trifluoromethyl)phenyl)ethyl (1-methyl-4-(6-methyl-5-(methylsulfonamido)pyridin-2-yl)-1H-1,2,3-triazol-5-yl)carbamate] reads 69.9 nM; that for `CC(OC(=O)Nc1c(-c2ccc(NS(C)(=O)=O)cn2)nnn1C)c1c(F)ccnc1Cl` (stereo not shown) [Compound 121, 1-(2-chloro-4-fluoropyridin-3-yl)ethyl (1-methyl-4-(5-(methylsulfonamido)pyridin-2-yl)-1H-1,2,3-triazol-5-yl)carbamate], 461 nM; that for `Cc1nc(-c2nnn(C)c2NC(=O)O[C@@H](c2ccccc2)C(F)F)ccc1NS(C)(=O)=O` [Compound 57, (S)-2,2-difluoro-1-phenylethyl (1-methyl-4-(6-methyl-5-(methylsulfonamido)pyridin-2-yl)-1H-1,2,3-triazol-5-yl)carbamate], 48.5 nM. As to `CC(C)NS(=O)(=O)Nc1ccc(-c2nnn(C)c2NC(=O)O[C@H](C)c2cccnc2Cl)nc1` [Compound 160, (R)-1-(2-chloropyridin-3-yl)ethyl (4-(5-((N-isopropylsulfamoyl)amino)pyridin-2-yl)-1-methyl-1H-1,2,3-triazol-5-yl)carbamate], the EC50 stood at 267 nM. As for `CSc1ccccc1[C@@H](C)OC(=O)Nc1c(-c2ccc(NS(C)(=O)=O)c(C)n2)nnn1C` [Compound 55, (R)-1-(2-(methylthio)phenyl)ethyl (1-methyl-4-(6-methyl-5-(methylsulfonamido)pyridin-2-yl)-1H-1,2,3-triazol-5-yl)carbamate], the figure is 64.9 nM. As to `Cc1nc(-c2nnn(C)c2NC(=O)O[C@H](C)c2ccccc2Cl)ccc1NS(=O)(=O)C1CC1` [Compound 103, (R)-1-(2-chloro-phenyl)ethyl(4-(5-(cyclopropane-sulfonamido)-6-methylpyridin-2-yl)-1-methyl-1H-1,2,3-triazol-5-yl)carbamate], the EC50 was 56.3 nM.

Regarding `C[C@@H](OC(=O)Nc1c(-c2ncc(NS(C)(=O)=O)cc2F)nnn1C)c1ccccc1Cl` [Compound 89, (R)-1-(2-chlorophenyl)ethyl(4-(3-fluoro-5-(methylsulfonamido)pyridin-2-yl)-1-methyl-1H-1,2,3-triazol-5-yl)carbamate], the EC50 was 31.4 nM.

Turning to `C=Cc1ncccc1[C@@H](C)OC(=O)Nc1c(-c2ccc(NS(C)(=O)=O)c(C)n2)nnn1C` [Compound 127, (R)-1-(2-vinylpyridin-3-yl)ethyl (1-methyl-4-(6-methyl-5-(methylsulfonamido)pyridin-2-yl)-1H-1,2,3-triazol-5-yl)carbamate], the EC50 was determined as 1420 nM. `C[C@@H](OC(=O)Nc1c(-c2ccc(NS(C)(=O)=O)cn2)nnn1C)c1cccc(Cl)c1` [Compound 14, (R)-1-(3-chlorophenyl)ethyl (1-methyl-4-(5-(methylsulfonamido)pyridin-2-yl)-1H-1,2,3-triazol-5-yl)carbamate]: the EC50 was determined as 66.3 nM. As for `Cn1nnc(-c2ccc(NS(C)(=O)=O)cn2)c1NC(=O)OCc1cccc(F)c1` [Compound 21, 3-fluorobenzyl (1-methyl-4-(5-(methylsulfonamido)pyridin-2-yl)-1H-1,2,3-triazol-5-yl)carbamate], the figure is 37.8 nM; as for `Cc1nc(-c2nnn(C)c2NC(=O)O[C@H](C)c2cscc2Cl)ccc1NS(C)(=O)=O` [Compound 138, (R)-1-(4-chlorothiophen-3-yl)ethyl (1-methyl-4-(6-methyl-5-(methylsulfonamido)pyridin-2-yl)-1H-1,2,3-triazol-5-yl)carbamate], 23 nM. As for `Cc1nc(-c2nnn(C)c2NC(=O)OCCC(C)(C)C)ccc1NS(C)(=O)=O` [Compound 32, 3,3-dimethylbutyl (1-methyl-4-(6-methyl-5-(methylsulfonamido)pyridin-2-yl)-1H-1,2,3-triazol-5-yl)carbamate], the figure is 1690 nM.

`Cc1nc(-c2nnn(C)c2NC(=O)OCc2cc(F)ccc2Cl)ccc1NS(C)(=O)=O` [Compound 38, 2-chloro-5-fluorobenzyl (1-methyl-4-(6-methyl-5-(methylsulfonamido)pyridin-2-yl)-1H-1,2,3-triazol-5-yl)carbamate]: the EC50 was found to be 167 nM. As for `CCc1nc(-c2nnn(C)c2NC(=O)O[C@H](C)c2cc(F)cnc2Cl)ccc1NS(C)(=O)=O` [Compound 147, (R)-1-(2-chloro-5-fluoropyridin-3-yl)ethyl (4-(6-ethyl-5-(methylsulfonamido)pyridin-2-yl)-1-methyl-1H-1,2,3-triazol-5-yl)carbamate], the figure is 127 nM; as for `Cc1nc(-c2nnn(C)c2NC(=O)OC(C)c2ccncc2F)ccc1NS(C)(=O)=O` (stereo not shown) [Compound 132, 1-(3-fluoropyridin-4-yl)ethyl (1-methyl-4-(6-methyl-5-(methylsulfonamido)pyridin-2-yl)-1H-1,2,3-triazol-5-yl)carbamate], 1130 nM. As for `Cc1nc(-c2nnn(C)c2NC(=O)O[C@H](C)c2scnc2Cl)ccc1NS(C)(=O)=O` [Compound 140, (R)-1-(4-chlorothiazol-5-yl)ethyl (1-methyl-4-(6-methyl-5-(methylsulfonamido)pyridin-2-yl)-1H-1,2,3-triazol-5-yl)carbamate], the figure is 305 nM; as for `Cc1nc(-c2nnn(C)c2NC(=O)OC(C)c2cccnc2C(F)F)ccc1NS(C)(=O)=O` (stereo not shown) [Compound 124, 1-(2-(difluoromethyl)pyridin-3-yl)ethyl (1-methyl-4-(6-methyl-5-(methylsulfonamido)pyridin-2-yl)-1H-1,2,3-triazol-5-yl)carbamate], 1080 nM.

For `Cc1nc(-c2nnn(C)c2NC(=O)O[C@H](C)c2cc(F)ncc2Cl)ccc1NS(C)(=O)=O` [Compound 123, (R)-1-(5-chloro-2-fluoropyridin-4-yl)ethyl (1-methyl-4-(6-methyl-5-(methylsulfonamido)pyridin-2-yl)-1H-1,2,3-triazol-5-yl)carbamate], the EC50 was found to be 86.1 nM.

The record behind these values is patent publication US11548871B2, “Triazole carbamate pyridyl sulfonamides as LPA receptor antagonists and uses thereof” (Gilead Sciences, Inc., priority 2019, dated 2023).
